Columns and labels:
[1] = system: CD8+ thymocytes; assay: Number of CD8+ thymocytes in treated NOD.Stat5bTg mice; type: in vivo, mouse; details: treatment for 2 weeks
Method: AG490 (30 mg/kg/day) and STAT5 inhibitor CNH (40 mg/kg/day) purchased from Calbiochem (La Jolla, Calif.) were injected intraperitoneally into F1 and NOD.Stat5b transgenic lines. Xanthohumol and apigenin (>98% purity by HPLC) purchased from Sigma (St. Louis, Mo.) were used in the chemoprevention experiments. Xanthohumol (100 mg/kg/day) and Apigenin (200 mg/kg/day) were injected alone or in combination intraperitoneally into NOD.Stat5b^Tg mice. Single-cell suspensions from thymus, spleen, lymph nodes and hollow fibers were stained and analyzed using a fluorescence-activated cell sorting (FACS) flow cytometer (BD Biosciences) with CELLQuest 3.3 software (Becton Dickinson, San Jose, Calif.). All antibodies were purchased from BD PharMingen (San Diego, Calif.) except anti-CD150-PE from Biolegend (San Diego, Calif.). For intracellular staining, cells were fixed and permeablized using Cytofix/Cytoperm solution (BD PharMingen), followed by P-Stat5 (pY694)-APC staining.

[2] = system: CD150; assay: CD150 expression by FACS in treated NOD.Stat5bTg mice; type: in vivo, mouse; details: for CD150 expression on CD8+ thymocytes: NOD.Stat5bTg mice, treatment for 2 weeks, intraperitoneal; for CD150 expression in peripheral blood CD8+ T cells: 10-week old NOD.Stat5bTg mice treated for 2 weeks
Method: (§1) AG490 (30 mg/kg/day) and STAT5 inhibitor CNH (40 mg/kg/day) purchased from Calbiochem (La Jolla, Calif.) were injected intraperitoneally into F1 and NOD.Stat5b transgenic lines. Xanthohumol and apigenin (>98% purity by HPLC) purchased from Sigma (St. Louis, Mo.) were used in the chemoprevention experiments. Xanthohumol (100 mg/kg/day) and Apigenin (200 mg/kg/day) were injected alone or in combination intraperitoneally into NOD.Stat5b^Tg mice.
(§2) Single-cell suspensions from thymus, spleen, lymph nodes and hollow fibers were stained and analyzed using a fluorescence-activated cell sorting (FACS) flow cytometer (BD Biosciences) with CELLQuest 3.3 software (Becton Dickinson, San Jose, Calif.). All antibodies were purchased from BD PharMingen (San Diego, Calif.) except anti-CD150-PE from Biolegend (San Diego, Calif.). For intracellular staining, cells were fixed and permeablized using Cytofix/Cytoperm solution (BD PharMingen), followed by P-Stat5 (pY694)-APC staining.

[3] = system: Ckmt2, Dgat2, Myl4, Csrp3, Nppa, Sln and Myh6; assay: Real-time RT-PCR of genes up-regulated in NOD.Stat5bTg mice; type: in vivo, mouse; details: normalized with GAPDH, versus vehicle-treated NOD.Stat5bTg mice
Method: as §1
RNA was isolated from thymus using the miRACLE™ total RNA isolation kit (Jinfiniti Biosciences) or RNeasy® kit (QIAGEN) and used for microarray and real-time RT-PCR analyses. The Illumina's MouseRef-8 v2.0 Expression BeadChip was used for transcriptional analysis. This BeadChip targets approximately 25,600 well-annotated RefSeq transcripts, over 19,100 unique genes, and enables the interrogation of eight samples in parallel. Probe preparation and hybridization were carried out according to Manufacture's recommendation. The microarray data are MIAME compliant and have been deposited in NCBI Gene Expression Omnibus and are accessible through GEO Series accession number GSE31526.
Real-time PCR was carried out in 96-well PCR plates using the ABI Prism 7900HT real-time PCR instrument (Applied Biosystems, Roche). […] The fluorescent signal was measured at the end of the annealing/elongation step in each cycle.

[4] = system: CD8+ lymphoma cells derived from F1.Stat5bTg mice; assay: In vivo hollow fiber assay, lymphoma cells from F1.Stat5bTg mice; parameters: species or system mouse; details: hollow fiber assay (data not shown)
[5] = system: Lymphoma cells from NOD.Stat5bTg mice; assay: In vivo hollow fiber assay, lymphoma cells from NOD.Stat5bTg mice; parameters: species or system mouse; details: lymphoma cells from NOD.Stat5bTg mice in hollow fibers in nude mice, 4 days of daily treatment
Text: Cellmax implant membranes were purchased from Spectrum Laboratories Inc. (Rancho Dominguez, Calif.). Lymphoma cells from NOD.Stat5b^Tg mice were harvested, suspended in cold phosphate buffered saline (PBS) and introduced into a 15 cm length of hollow fiber. The fiber was heat-sealed at 20 mm intervals, and each segment was separated using a pair of scissors. Intraperitoneal implantation in methoxyflurane anesthetized 6 week-old nude mice were accomplished via a dorsal incision which allowed passage of the hollow fiber into abdomen. The abdominal wall is closed using skin staples. After 3 days of transplantation, mice with implants were treated daily with either AG490 (30 mg/kg/day) or CNH (40 mg/kg/day). Single cell suspensions were obtained after 4 days of treatment by cutting off the sealed ends of the fibers. Cells were then washed twice with PBS and further processed for flow cytometry.
as §2, with “For intracellular staining, cells were fixed and permeablized using Cytofix/Cytoperm solution (BD PharMingen), followed by P-Stat5 (pY694)-APC staining.” left out

[6] = system: phosphorylated STAT5; assay: STAT5 phosphorylation (p-STAT5) by Western blotting and FACS in treated NOD.Stat5bTg mice; type: in vivo, mouse; details: for p-STAT5 expression in thymocytes: NOD.Stat5bTg mice, treatment for 2 weeks, Western analysis and FACS; for STAT5 activation (pSTAT5) in peripheral blood CD8+ T cells: 10-week old NOD.Stat5bTg mice treated for 2 weeks, FACS
Method: as §1, §2
Whole cell extracts were prepared from thymus or spleens using RIPA lysis buffer (Santa Cruz) supplemented with protease inhibitors. Western blot analysis was carried out as reported (29) by probing the blots with rabbit anti-phospho-Stat5 (Tyr694), rabbit anti-Stat5 or mouse anti-β-actin (Santa Cruz biotechnology), washed, and incubated with a horseradish peroxidase-conjugated anti-rabbit or anti-mouse antibody (Santa Cruz biotechnology). Immunopositive bands were photographed (Versadoc; Bio-Rad) after blots were developed with an enhanced chemiluminescent substrate (Pierce Chemical Co).

[7] = system: lymphoma in NOD.Stat5bTg mice; assay: Lymphomagenesis in NOD.Stat5bTg mice; type: in vivo, mouse; details: 5 week-old NOD.Stat5bTg mice, three cycles of 3-week on and 3-week off
Text: In several experiments, mice were monitored for tumors through physical examination. Mice showing sufficient signs of pain and suffering including thymic and cervical lymphoid enlargement were euthanized for a complete necropsy. Final diagnosis of disease was established by clinical, pathologic and FACS analysis. Images of H&E staining were visualized with an Axiophot I microscope (Carl Zeiss) equipped with a Plan Neofluar 40X objective (FIG. 1c). Images were captured with an Axiocam color CDD camera, and treated on a computer with Axiovision software (Carl Zeiss).
as §1
Since AG490 and STAT5b inhibitor CNH can inhibit STAT5 function and CD150 expression, they could delay lymphomagenesis. […] STAT5 inhibitors are potentially very effective in treating cancers with fewer unpleasant side effects. To test this possibility, CNH (40 mg/kg/day) was used to treat 5 week-old NOD.Stat5^Tg mice with three cycles of 3-week on and 3-week off.

## N#C/C(=C/c1ccc(O)c(O)c1)C(=O)NCc1ccccc1 [AG490]
[1]
  number of CD8+ thymocytes: greatly decreased
[2]
  CD150 expression on CD8+ thymocytes: inhibited
[3]
  expression of genes up-regulated in NOD.Stat5bTg mice (Ckmt2, Dgat2, Myl4, Csrp3, Nppa, Sln and Myh6) in thymocytes: did not significantly down-regulate
[4]
  survival of CD8+ lymphoma cells: did not alter
[5]
  apoptosis of lymphoma cells (Annexin V): significantly increased
[6]
  p-STAT5 expression in thymocytes: dramatic decrease

## O=c1cc(-c2ccc(O)cc2)oc2cc(O)cc(O)c12 [Apigenin]
[2]
  CD150 expression in peripheral blood CD8+ T cells: significantly inhibit
[6]
  STAT5 activation (pSTAT5) in peripheral blood CD8+ T cells: significantly inhibit

## O=C(NN=Cc1coc2ccccc2c1=O)c1cccnc1 [CNH, chromone-based nicotinyl hydrazone]
[1]
  number of CD8+ thymocytes: significantly decreased
[2]
  CD150 expression on CD8+ thymocytes: significantly decreased
[3]
  expression of genes up-regulated in NOD.Stat5bTg mice (Ckmt2, Dgat2, Myl4, Csrp3, Nppa, Sln and Myh6) in thymocytes: did not significantly down-regulate
[4]
  survival of CD8+ lymphoma cells: did not alter
[5]
  apoptosis of lymphoma cells (Annexin V): significantly increased
[6]
  p-STAT5 expression in thymocytes: did not decrease
[7]
  age before which treated mice were free of lymphomas: ≥ 27 weeks
  percentage of treated mice that developed lymphoma by 30 weeks of age: 17%

## COc1cc(O)c(CC=C(C)C)c(O)c1C(=O)/C=C/c1ccc(O)cc1 [Xanthohumol]
[2]
  CD150 expression in peripheral blood CD8+ T cells: significantly inhibit
[6]
  STAT5 activation (pSTAT5) in peripheral blood CD8+ T cells: significantly inhibit

Reference: US8816151B2, “Stat5b transgenic mice and methods of use thereof” (Georgia Health Sciences University Research Institute, Inc., priority 2012, dated 2014)
